Assay: Thermodynamic stability of crystalline polymorphs (enantiotropic transition, storage)
Type: physicochemical
Conditions: for enantiotropic transition temperature between Form A and Form C: free base polymorphs; for thermodynamic stability of the crystalline form: relative to other crystalline forms of Compound I, temperature range as stated; for solid form stability at room temperature / on storage: room temperature (22° C.)

| SMILES | enantiotropic transition temperature between Form A and Form C | thermodynamic stability of the crystalline form | solid form stability at room temperature / on storage |
| --- | --- | --- | --- |
| O=C1O[C@]2(CC[C@H](C(=O)Nc3ccn(-c4ccccc4F)n3)CC2)c2cnccc21 [Form A, trans-N-[1-(2-fluorophenyl)-3-pyrazolyl]-3-oxospiro[6-azaisobenzofuran-1(3H),1′-cyclohexane]-4′-carboxamide] | approximately 81 °C | most thermodynamically stable crystalline form of compound (I) above 81 °C | instability |
| O=C1O[C@]2(CC[C@H](C(=O)Nc3ccn(-c4ccccc4F)n3)CC2)c2cnccc21 [Form C, trans-N-[1-(2-fluorophenyl)-3-pyrazolyl]-3-oxosiro[6-azaisobenzofuran-1(3H),1′-cyclohexane]-4′-carboxamide] | approximately 81 °C | most thermodynamically stable crystalline form of Compound I below 81 °C | not subject to transforming to another crystal form |
